These results are taken from US12472178B2, “Amorphous solid dispersions” (INTRA-CELLULAR THERAPIES, INC., priority 2016, dated 2025).

For series [1] the following is noted: amorphous form compared with the crystalline form; cited from earlier work.
Series [2] addresses T1, 5-HT2C (Homo sapiens, UniProt P28335).
T1 sequence (P28335 33-458): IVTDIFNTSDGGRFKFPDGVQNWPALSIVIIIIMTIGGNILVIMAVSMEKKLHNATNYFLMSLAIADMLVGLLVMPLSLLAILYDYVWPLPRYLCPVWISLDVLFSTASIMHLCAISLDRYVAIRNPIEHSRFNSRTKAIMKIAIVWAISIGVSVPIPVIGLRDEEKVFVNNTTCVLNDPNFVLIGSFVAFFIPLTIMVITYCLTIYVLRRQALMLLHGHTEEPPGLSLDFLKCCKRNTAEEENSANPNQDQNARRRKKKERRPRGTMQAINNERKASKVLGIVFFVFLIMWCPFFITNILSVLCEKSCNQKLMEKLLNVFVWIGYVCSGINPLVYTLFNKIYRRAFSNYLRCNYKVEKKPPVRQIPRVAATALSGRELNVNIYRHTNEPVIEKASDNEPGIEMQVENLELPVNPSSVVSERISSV
The note with it: cited from earlier work.

The conditions of series [3]: free base form; cited from earlier work.
For series [4], the target named is H1 histaminergic (Homo sapiens, UniProt P35367). The note with it: cited from earlier work.
H1 histaminergic, sequence (P35367 whole entry): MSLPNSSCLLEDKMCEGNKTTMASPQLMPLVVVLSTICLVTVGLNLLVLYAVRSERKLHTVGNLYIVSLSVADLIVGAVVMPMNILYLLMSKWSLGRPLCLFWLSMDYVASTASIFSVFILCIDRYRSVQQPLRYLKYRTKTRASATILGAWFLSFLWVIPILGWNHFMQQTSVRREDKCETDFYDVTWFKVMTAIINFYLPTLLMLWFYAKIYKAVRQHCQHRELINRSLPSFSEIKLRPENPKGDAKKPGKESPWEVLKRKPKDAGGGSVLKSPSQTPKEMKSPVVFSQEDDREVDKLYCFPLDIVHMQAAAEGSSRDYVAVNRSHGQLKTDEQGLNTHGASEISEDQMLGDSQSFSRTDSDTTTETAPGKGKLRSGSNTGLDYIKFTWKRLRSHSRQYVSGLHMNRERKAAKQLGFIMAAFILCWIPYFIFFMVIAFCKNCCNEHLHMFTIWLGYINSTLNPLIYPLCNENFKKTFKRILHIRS
A short description of series [5]: Stability of solutions in 2,2,2-trifluoroethanol. In kind it is physicochemical. Conditions: solutions in TFE.
Series [6] can be described thus: Preliminary screen of lyophilized dispersions by XRPD and appearance. In kind it is physicochemical. Conditions: ITI-007 free base dispersions, as generated. As for the experimental part:
X-ray powder diffraction (XRPD): The X-ray powder diffraction studies are performed using a PANalytical X′Pert PRO MPD diffractometer using an incident beam of Cu radiation produced using an Optix long, fine-focus source. An elliptically graded multilayer mirror is used to focus Cu Kα X-ray radiation through the specimen and onto the detector. Prior to analysis, a silicon specimen is analyzed to verify the observed position of the Si (111) peak (consistent with the NIST-certified position, NIST SM 640e). A specimen of the sample is sandwiched between 3-micron thick films and analyzed in transmission geometry. A beam-stop, short antiscatter extension, and antiscatter knife edge is used to minimize the background generated by the air. Soller slits for the incident and diffracted beams are used to minimize broadening from axial divergence. Diffraction patterns are collected using a scanning position-sensitive detector (X′Celerator) located 240 mm from the specimen. Data Collector software v. 2.2b is used for analysis.
Solutions are initially frozen in a dry ice/acetone bath, and then placed in a freeze dryer with the shelf pre-cooled to −75° C. […]
Solid dispersions obtained from Example 1 are first evaluated by XRPD to determine if they are amorphous. […]
The same excipients are evaluated as described in Example 1.

Series [7] in a line: Glass transition temperature by mDSC. The series is classed as physicochemical. Conditions: ITI-007 free base dispersions; Yes/No.
Series [8] deals with muscarinic receptors. The note with it: cited from earlier work.

In the case of `CO/N=C(\C(=O)N[C@@H]1C(=O)N2C(C(=O)OC(C)OC(C)=O)=C(COC(N)=O)CS[C@H]12)c1ccco1` (some centres unmarked) [Cefuroxime axetil], the bioavailability result in series [1] was “higher bioavailability”.

Consider `CN1CCN2c3c(cccc31)[C@@H]1CN(CCCC(=O)c3ccc(F)cc3)CC[C@@H]12` [ITI-007, 1-(4-fluoro-phenyl)-4-((6bR,10aS)-3-methyl-2,3,6b,9,10,10a-hexahydro-1H,7H-pyrido[3′,4′:4,5]pyrrolo[1,2,3-de]quinoxalin-8-yl)-butan-1-one], for which the binding entry in series [2], in series [4] and in series [8] was “negligible binding” in each case. The solubility in water entry in series [3] is listed as “poor solubility”. The stability of solution entry in series [5] is listed as “rapidly discolor due to decomposition of the active”. In addition, the “X-ray Amorphous Solids?” value in series [6] is reported as “No”. In addition, the “Tg > 75° C.” value in series [7] is given as “No”.
